The values that follow come from patent US7368578B2, “Five-membered heterocyclic compounds” (Takeda Pharmaceutical Company Limited, priority 2002, dated 2008).

The target in the first assay is T1, human PPARγ1 (Homo sapiens, UniProt P37231).
T1 construct: expressed in transfected cells; host or cells: CHO-K1 cells stably transfected with pVgRXR2-hPPARγ and reporter plasmid pGL3-4ERPP-TK neo
T1 sequence (P37231 1-477 isoform P37231-2): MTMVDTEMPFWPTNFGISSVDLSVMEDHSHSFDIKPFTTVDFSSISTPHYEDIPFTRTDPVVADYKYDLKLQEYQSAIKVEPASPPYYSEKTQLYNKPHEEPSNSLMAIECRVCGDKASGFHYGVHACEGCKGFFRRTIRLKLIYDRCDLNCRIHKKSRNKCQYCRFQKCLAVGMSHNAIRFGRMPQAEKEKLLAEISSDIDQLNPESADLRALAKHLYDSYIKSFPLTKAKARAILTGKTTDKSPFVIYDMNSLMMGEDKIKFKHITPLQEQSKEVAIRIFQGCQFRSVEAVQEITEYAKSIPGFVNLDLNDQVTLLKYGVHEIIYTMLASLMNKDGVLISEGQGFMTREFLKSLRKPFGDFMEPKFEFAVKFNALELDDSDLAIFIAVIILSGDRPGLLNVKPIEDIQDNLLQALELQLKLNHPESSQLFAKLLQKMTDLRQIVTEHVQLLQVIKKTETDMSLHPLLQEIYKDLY
T1 sequence (P19793 1-462 partner): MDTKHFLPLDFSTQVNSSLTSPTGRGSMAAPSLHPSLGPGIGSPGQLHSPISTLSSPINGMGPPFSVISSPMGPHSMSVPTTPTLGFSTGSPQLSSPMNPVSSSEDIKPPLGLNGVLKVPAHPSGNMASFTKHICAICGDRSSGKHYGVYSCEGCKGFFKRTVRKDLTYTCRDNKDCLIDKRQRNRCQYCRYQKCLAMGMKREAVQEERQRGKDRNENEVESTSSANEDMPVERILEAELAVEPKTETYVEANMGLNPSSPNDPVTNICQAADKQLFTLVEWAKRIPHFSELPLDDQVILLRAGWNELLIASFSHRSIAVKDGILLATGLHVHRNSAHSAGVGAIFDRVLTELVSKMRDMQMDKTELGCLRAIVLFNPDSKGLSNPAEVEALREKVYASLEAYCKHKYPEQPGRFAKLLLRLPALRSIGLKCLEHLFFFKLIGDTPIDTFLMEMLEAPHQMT
The experiment in a line: Human PPARγ1 antagonist assay (luciferase reporter in PPARγ:RXRα:4ERPP/CHO-K1 cells). To be noted: test compound 10^−5 M, 10 nM compound A as stimulant, luciferase activity, 24 hrs, read-out: Inhibitory rate (%). Type of assay: cell-based. On the procedure: PPARγ:RXRα:4ERPP/CHO-K1 cells (obtained in Reference Example 5a) cultured in Ham's F-12 medium (GIBCO, Inc.) supplemented with 10% fetal bovine serum (TRACE SCIENTIFIC, Ltd.) were seeded in a well of a 96 well white plate at 2×10^4 cells/well and cultured under 37° C. 5% CO2 conditions for 24 hrs. After removal of the medium, Ham's F-12 medium (GIBCO) containing 60 μl of 0.1% BSA (not containing fatty acid) (Wako Pure Chemical Industries, Ltd.), 20 μl of 10^−5M or 10^−6 M test compound and 20 μl of compound A having a final concentration of 10 nM as a stimulant were added, and the cells were cultured under 37° C. 5% CO2 conditions for 24 hrs. After removal of the medium, 40 μl of Pickagene LT7.5 (Wako Pure Chemical Industries, Ltd.) 2-fold diluted with HBSS (HANKS' BALANCED SALT SOLUTION) (BIO WHITTAKER Inc.) was added. After stirring, luciferase activity was measured using 1420 ARVO Multilabel Counter (Wallac, Inc.). In addition, a test similar to the above was conducted for the non-use of the aforementioned test compound alone and for the non-use of the aforementioned test compound and compound A to determine the luciferase activity.
The human PPARγ1 antagonistic activity of the test compound was evaluated using percentages (% inhibition) wherein the luciferase activity when 10 nM compound A alone was added was 0%, and the luciferase activity when the test compound and compound A were not added was 100%. The concentration of the test compound was 10^−5 M for the compounds of Example 42 and 315 and 10^−6 M for other test compounds.
After a CHO-K1 cell cultured in a cell culture flask (150 cm^2) (produced by Corning Costar Corporation, USA) containing Ham's F-12 medium (produced by Life Technologies, Inc., USA) supplemented with 10% fetal bovine serum (produced by Life Technologies, Inc., USA) was detached by treating with 0.5 g/L trypsin-0.2 g/L EDTA (ethylenediaminetetraacetic acid) (produced by Life Technologies, Inc., USA), the cell was washed with PBS (phosphate-buffered saline) (produced by Life Technologies, Inc., USA), centrifuged (1000 rpm, 5 minutes), and then suspended in PBS. Subsequently, the DNA was introduced into the cells under the conditions shown below using GENE PULSER (produced by Bio-Rad Laboratories, USA).
Namely, to a cuvette having a 0.4 cm gap, added were 8×10^6 cells and 10 μg of plasmid pVgRXR2-hPPARγ obtained in Reference Example 4a and 10 μg of reporter plasmid pGL3-4ERPP-TK neo obtained in Reference Example 2a, which was subjected to electroporation at the voltage of 0.25 kV under the capacitance of 960 μF. Subsequently, the cell was transferred into a Ham's F-12 medium containing 10% fetal bovine serum and cultured for 24 hours and then the cells were detached again and centrifuged, and then suspended in HAM F12 medium containing 10% fetal bovine serum supplemented with 500 μg/ml of GENETICIN (produced by Life Technologies, Inc., USA) and 250 μg/ml of ZEOCIN (produced by Invitrogen, USA). The obtained suspension was diluted to the density of 10^4 cells/ml and inoculated to a 96-well plate (produced by Corning Costar Corporation, USA), which was cultured in a CO2 gas incubator at 37° C., whereby obtaining a GENETICIN- and ZEOCIN-resistant transformant. Subsequently, after the transformant cell line thus obtained was cultured in a 24-well plate (produced by Corning Costar Corporation, USA), selected was a cell line in which the luciferase was expressed and induced, i.e., PPARγ:RXRα:4ERPP/CHO-K1 cell by the addition of 10 μM pioglitazone hydrochloride.
Consider `CCOP(=O)(/C=C/c1cn(-c2ccccc2)nc1OCc1ccc(OCc2nc(/C=C/C(=O)O)oc2C)c(OC)c1)OCC` [Example 315, (2E)-3-[4-({4-[({4-[(E)-2-(diethoxyphosphoryl)ethenyl]-1-phenyl-1H-pyrazol-3-yl}oxy)methyl]-2-methoxyphenoxy}methyl)-5-methyl-1,3-oxazol-2-yl]-2-propenoic acid], for which the inhibition at 10 µM stood at 112%.

The same assay, now with this note: test compound 10^−6 M, 10 nM compound A as stimulant, luciferase activity, 24 hrs, read-out: Inhibitory rate (%).
In the case of `CCOP(=O)(/C=C/c1cn(-c2ccccc2)nc1OCc1ccc(OCc2nc(-c3ccc(CC(=O)O)cc3)oc2C)c(OC)c1)OCC` [Example 241, {4-[4-({4-[({4-[(E)-2-(diethoxyphosphoryl)ethenyl]-1-phenyl-1H-pyrazol-3-yl}oxy)methyl]-2-methoxyphenoxy}methyl)-5-methyl-1,3-oxazol-2-yl]phenyl}acetic acid], the inhibition at 1 µM was determined as 113%.

On to `CCOP(=O)(/C=C/c1cn(-c2ccccc2)nc1OCc1ccc(OCc2nc(-c3cccc(CC(=O)O)c3)oc2C)c(OC)c1)OCC` [Example 249, {3-[4-({4-[({4-[(E)-2-(diethoxyphosphoryl)ethenyl]-1-phenyl-1H-pyrazol-3-yl}oxy)methyl]-2-methoxyphenoxy}methyl)-5-methyl-1,3-oxazol-2-yl]phenyl}acetic acid], for which the inhibition at 1 µM turned out to be 108%.

`CCOP(=O)(/C=C/c1cn(-c2ccccc2)nc1OCc1ccc(OCc2nc(-c3ccc(OC)c(C(=O)O)c3)oc2C)c(OC)c1)OCC` [Example 252, 5-{4-({4-[({4-[(E)-2-(diethoxyphosphoryl)ethenyl]-1-phenyl-1H-pyrazol-3-yl}oxy)methyl]-2-methoxyphenoxy}methyl)-5-methyl-1,3-oxazol-2-yl}-2-methoxybenzoic acid]: the inhibition at 1 µM was 111%.

Consider `COc1cc(COc2nn(-c3ccccc3)cc2/C=C/C#N)ccc1OCc1nc(-c2ccccc2)oc1C` [Example 282, (E)-3-(3-{[3-methoxy-4-(5-methyl-2-phenyl-1,3-oxazol-4-ylmethoxy)benzyl]oxy}-1-phenyl-1H-pyrazol-4-yl)-2-propenonitrile], for which the inhibition at 1 µM worked out at 69%.

`CCOC(=O)/C=C/c1cn(-c2ccccc2)nc1OCc1ccc(OCc2nc(-c3ccccc3)oc2C)c(OC)c1` [Example 284, ethyl (E)-3-(3-{[3-methoxy-4-(5-methyl-2-phenyl-1,3-oxazol-4-ylmethoxy)benzyl]oxy}-1-phenyl-1H-pyrazol-4-yl)-2-propenoate]: the inhibition at 1 µM worked out at 107%.

Regarding `CCc1nc(/C=C/c2cn(-c3ccccc3)nc2OCc2ccc(OCc3nc(-c4cccc(C(=O)O)c4)oc3C)c(OC)c2)co1` [Example 307], the inhibition at 1 µM came to 108%.

As for `CCOP(=O)(/C=C/c1cn(-c2ccccc2)nc1OCc1ccc(OCc2nc(-c3cccc(-c4nnn[nH]4)c3)oc2C)c(OC)c1)OCC` [Example 336, {(E)-2-(3-{[3-methoxy-4-({5-methyl-2-[3-(1H-tetrazol-5-yl)phenyl]-1,3-oxazol-4-yl}methoxy)benzyl]oxy}-1-phenyl-1H-pyrazol-4-yl)ethenyl}phosphonate diethyl], the inhibition at 1 µM amounted to 102%.

Consider `CCc1nc(/C=C/c2cn(-c3ccccc3)nc2OCc2ccc(OCc3nc(-c4ccc(CC(=O)O)cc4)oc3C)c(OC)c2)cs1` [Example 337, {4-[4-({4-[({4-[(E)-2-(2-ethyl-1,3-thiazol-4-yl)ethenyl]-1-phenyl-1H-pyrazol-3-yl}oxy)methyl]-2-methoxyphenoxy}methyl)-5-methyl-1,3-oxazol-2-yl]phenyl}acetic acid], for which the inhibition at 1 µM came to 110%.

`CCn1cnc(/C=C/c2cn(-c3ccccc3)nc2OCc2ccc(OCc3nc(-c4ccc(CC(=O)O)cc4)oc3C)c(OC)c2)c1` [Example 344, (4-{4-[(4-[({4-[(E)-2-(1-ethyl-1H-imidazol-4-yl)ethenyl]-1-phenyl-1H-pyrazol-3-yl}oxy)methyl]-2-methoxyphenoxy)methyl]-5-methyl-1,3-oxazol-2-yl}phenyl)acetic acid]: the inhibition at 1 µM is 103%.
